Experiment [1] concerns adjuvant-induced arthritis in rats. Description: Established Adjuvant-Induced Arthritis in Rats. It is filed as in vivo, rat (male Charles River Lewis). The note with it: for ED50: 24 h, read-out: Adjuvant Arthritis ED50 (effective dose for 50% decrease from control paw volume).
Experiment [2] concerns phenylquinone writhing in mice. Description: Phenylquinone Writhing Test (analgesic activity). It is filed as in vivo, mouse (female white mice). The note with it: read-out: Phenylquinone Writhing (PQW) ED50 (effective analgesic dose for 50% of the mice). As to the method: Phenylquinone Writhing Test
A test compound suspended in 1% methylcellulose was given orally to fasted (17-21 hours) female white mice, 5-20 animals per double blind test. Aqueous (0.01% phenyl-p-benzoquinone) phenylquinone, 0.20 ml per mouse, was injected intraperitoneally 6 minutes before observations were begun.

[3] abbreviates: rat, oral gavage, 7 daily doses, paw volume one day after last dose.
Where [4] appears, read: mouse, oral, phenylquinone i.p. 6 minutes before 10 minutes observation.

Read-outs that look alike come from different tables or passages of the source.

Take `COc1ccc(-c2cc(C(C)(C)C)sc2-c2ccc(OC)cc2)cc1` [Example 4, 5-(1,1-Dimethylethyl)-2,3-bis(4-methoxyphenyl)thiophene]: the ED50 in experiment [1] (setting [3]) was found to be 36 mg/kg; in experiment [2] (setting [4]) it was 1.4 mg/kg.
As to `COc1ccc2c(c1)c(CC(=O)O)c(C)n2C(=O)c1ccc(Cl)cc1` [Indomethacin, reference compound], the 50% effective dose (ED50) was 0.3 mg/kg in experiment [1] (Rattus norvegicus, po) and 0.35 mg/kg in experiment [2] (Mus musculus, po).
As to `COc1ccc(-c2cc(C)sc2-c2ccc(OC)cc2)cc1` [Example 1, 5-Methyl-2,3-bis(4-methoxyphenyl)thiophene], the median effective dose (ED50) in experiment [1] (setting [3]) came out at 60 mg/kg; in experiment [2] (setting [4]), 78 mg/kg.
Consider `COc1ccc(-c2cc(C3CCCCC3)sc2-c2ccc(OC)cc2)cc1` [Example 3, 5-Cyclohexyl-2,3-bis(4-methoxyphenyl)thiophene], for which the “percent reduction in paw volume at the indicated dose” value in experiment [1] (rat, oral gavage, 7 daily doses, at 45 mg/kg) turned out to be 34%. Further, the median effective dose (ED50) in experiment [2] (setting [4]) is 47 mg/kg.
For the compound `CCC(C)c1cc(-c2ccc(OC)cc2)c(-c2ccc(OC)cc2)s1` (stereo not drawn) [Example 2, 5-(1-Methylpropyl)-2,3-bis(4-methoxyphenyl)thiophene], the ED50 worked out at 29 mg/kg in experiment [1] (setting [3]) and 5.5 mg/kg in experiment [2] (setting [4]).
In the case of `CCCCC1C(=O)N(c2ccccc2)N(c2ccccc2)C1=O` [Phenylbutazone, reference compound], the results for the ED50 in experiment [1] (setting [3]) and in experiment [2] (setting [4]) were 10 mg/kg and 80 mg/kg, respectively.
On to `CC(C)Cc1ccc(C(C)C(=O)O)cc1` (stereo not drawn) [Ibuprofen, reference compound], for which the results for the ED50 in experiment [1] (setting [3]) and in experiment [2] (setting [4]) were 100 mg/kg and 10 mg/kg, respectively.
In the case of `CC(=O)Oc1ccccc1C(=O)O` [Aspirin, reference compound], the ED50 in experiment [1] (Rattus norvegicus, po) came out at 305 mg/kg.

What is called ED50 is the dose that gives a 50% effect, or the effect in half of the subjects.

Values taken from patent publication US4749712A, “Antiinflammatory and/or analgesic 5-alkylthiophenes” (E. I. Du Pont de Nemours and Company, priority 1984, dated 1988).
